What was measured:
[1] = system: TMD8 subcutaneous xenograft (human diffuse large B-cell lymphoma cells); experiment: In vivo efficacy in TMD8 subcutaneous xenograft model; set-up: species or system mouse; conditions: 10 mg/kg and 30 mg/kg vs Ibrutinib 50 mg/kg and GDC-0853 10 mg/kg
Description: Example 7 Evaluation of In Vivo Efficacy of the Compound of the Present Invention in TMD8 Subcutaneous Xenograft Model
Objects: To investigate the anti-tumor activity of compound 19 in TMD8 subcutaneous xenograft model in nude mice.
Methods: Human diffuse large B-cell lymphoma cells TMD8 (acquired under license from Tokyo Medical and Dental University) were cultured in RPMI1640 medium containing 10% fetal bovine serum. 1×10^7 tumor cells suspended in RPMI1640 medium mixed well with Matrigel (purchased from Corning, USA) at 1:1 were implanted subcutaneously on the right flank of each male Balb/c nude mouse (Shanghai Lingchang Biotechnology Co., Ltd.), pretreated with cyclophosphamide (at a dose of 200 mg/kg, intraperitoneal injection 24 h before cell inoculation). […] All drugs were administered by oral gavage, once a day, and the vehicle control group was administered orally with 0.5% hydroxypropyl methylcellulose solution (pH=3).
Tumor volumes (tumor volume=0.5× long diameter× short diameter^2) and body weights of the mice were measured regularly. The tumor volume change and body weight were statistically analyzed, with p<0.05 considered statistically significant, and p<0.01 as extremely statistically significant.
The anti-tumor activity was evaluated by tumor growth inhibition. […]

[2] = Stability test in liver microsomes (rat); assay type: in vitro ADME; conditions: 1 μM compound
In short: (§1)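 Compound (1 μM final) incubated 30 min at 37 °C with male CD-1 mouse or male SD rat pooled liver microsomes (0.5 mg/mL) in 50 mM phosphate buffer with 3 mM MgCl2, 1 mM EDTA and NADPH-regenerating system. Quenched with acetonitrile containing internal standard; LC-MS/MS gives percent remaining relative to 0-min sample.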

[3] = Stability test in liver microsomes (mouse); assay type: in vitro ADME; conditions: 1 μM compound
In short: as §1

[4] = 0.5 mg/mL liver microsomes, 30 minutes incubation

Structure (SMILES): C[C@H]1CN(C2COC2)CCN1c1ccc(Nc2cc(-c3ccnc(-n4ccn5c6c(cc5c4=O)CC(C)(C)C6)c3CO)cn(C)c2=O)nc1 [Compound 19]
- anti-tumor efficacy compared with Ibrutinib or GDC-0853 [1]: statistically significant superior efficacy to Ibrutinib or GDC-0853
- stability in rat liver microsomes compared with reference GDC-0853 [2, 4]: better than that of the reference GDC-0853
- RLM, percentage of remaining compound after 30 minutes of incubation ([2]; rat liver microsomes, 30 min): 92.7%
- stability in mouse liver microsomes compared with reference GDC-0853 [3, 4]: better than that of the reference GDC-0853
- MLM, percentage of remaining compound after 30 minutes of incubation ([3]; mouse liver microsomes, 30 min): 91.8%

Reference: patent US12070457B2, “Substituted pyridines, pyridazines, pyrimidines, and 1,2,3-triazines as bruton's tyrosine kinase inhibitors” (HUTCHISON MEDIPHARMA LIMITED, priority 2020, dated 2024)
